In patent US10398781B2, “Conjugate based systems for controlled drug delivery” (SmartCells, Inc., priority 2009, dated 2019):

Legend:
[1] = Sugar-dependent i.v. elimination half-life in minipigs; type: in vivo, non-diabetic, male miniature swine (Yucatan strain); conditions: pigs, 0.1 U/kg i.v.
blood glucose [2] = assay: Sub-Q injection in non-diabetic and alloxan-diabetic minipigs; type: in vivo, Yucatan minipigs
blood glucose [3] = assay: Glucose lowering after i.v. injection in minipigs with and without a-MM infusion; type: in vivo, non-diabetic male Yucatan minipigs; conditions: 0.1 U/kg i.v.; for overall bioactivity (glucose lowering): minipigs
[4] = test system: serum insulin and blood glucose levels; assay: Effect of IP exogenous saccharide 15 minutes after sub-Q conjugate on PK/PD profile; type: in vivo, fasted normal non-diabetic rats (Male Sprague-Dawley)
[5] = test system: serum insulin and blood glucose levels; assay: Effect of a-MM co-injected at the local sub-Q injection site; type: in vivo, non-diabetic, male SD rats; conditions: 5 U/kg sub-Q
Method: In view of the data described in Example 42, we set out to determine whether the alpha-methyl mannose (a-MM) induced increase in serum conjugate concentration and bioactivity was a result of an increased rate of absorption from the subcutaneous injection site. The high affinity TSAT-C6-AETM-2 conjugate I-2 was used for this experiment. First, the conjugate was diluted to a concentration of 5 U/ml (0.2 mg/ml insulin equivalent) using either a buffered saline solution or a buffered saline solution containing 1 M a-MM. Each solution was injected sub-Q at a dose of 5 U/kg into the back of the neck of each of three non-diabetic, male SD rats at time 0 and blood samples were collected via tail vein bleeding at 0 minutes and at 15, 30, 45, 60, 90, 120, 150, 180, 240, and 300 minutes after injection. […] In this experiment, rats that received the a-MM conjugate solution also received an injection of buffered saline solution sub-Q at a separate hind quarter injection site at 15 minutes. Rats that received the saline conjugate solution also received an injection of a-MM solution sub-Q at a separate hind quarter injection site at 15 minutes.

[6] = Accelerated stability testing (AST) aggregation assay; type: physicochemical; conditions: PBS buffer
blood glucose [7] = assay: Blood glucose depression profile after subcutaneous injection; type: in vivo, fasted normal non-diabetic rats (Male Sprague-Dawley); conditions: sub-Q
[8] = sub-Q, II-2 0.25, 0.50, 1.00 U/kg, RHI 0.063 and 0.125 U/kg
[9] = 0.25 ml of 20 U equivalent insulin/ml

## II-2: A1,B29-disubstituted insulin, TSAT-C6 frameworks, four AETM ligands
[1]
  increase in t1/2 in the presence of a-MM: ~10 fold
Blood glucose [2]; single injection of approximately 0.5 U/kg
  duration of hypoglycemia-free glucose control in diabetic minipigs: 6 to 8 h
Blood glucose [2]; [8]
  blood glucose in alloxan-diabetic, hyperglycemic minipigs: significant dose-dependent reduction in blood glucose levels
  hypoglycemia / glucose-lowering in non-diabetic minipigs: absolutely no hypoglycemia or signs of glucose-lowering
Blood glucose [3]
  area over the glucose lowering curve in the presence of a-MM vs. absence of sugar: approximately 2.6 ×
  overall bioactivity (glucose lowering): reduced overall bioactivity
Blood glucose [3]; a-MM infusion 25% w/v 80 ml/h
  a-MM induced bioactivity: increased the a-MM induced bioactivity

## I-2: human insulin conjugated at B1 to TSAT-C6 framework with two AETM ligands
[4]; L-fucose IP 15 minutes after sub-Q injection
  effect of IP L-fucose on serum insulin profile: alpha-methyl mannose and L-fucose appear to exhibit the same kind of effect
[4]; a-MM IP 15 minutes after sub-Q injection
  change in PK/PD profile from IP injection of alpha-methyl mannose vs. saline: very significant (p<0.05)
[4]; galactose IP 15 minutes after sub-Q injection
  effect of IP galactose on serum insulin profile: no effect as compared to saline
[4]; glucose IP 15 minutes after sub-Q injection
  effect of IP glucose on serum insulin profile: small effect
[5]
  serum insulin and blood glucose with 1M a-MM co-injected vs. buffered saline: the serum insulin levels do not increase and the blood glucose levels do not decrease

## I-16: human insulin conjugated at B1 to TSPE framework with three AEM ligands
[6]
  AST aggregation stability compared with RHI: greatly enhanced stability over pharmaceutical grade RHI

## I-12: human insulin conjugated at A1 to TSAT-C6 framework with two AETM ligands
Blood glucose [3]
  overall bioactivity (glucose lowering): slightly more effective in lowering glucose than conjugate I-6

## insulin-dextran: comparative insulin-dextran (MW~70K) conjugate made by CNBr coupling per U.S. Patent Publication No. 20040202719
Blood glucose [7]; [9]
  duration of serum glucose depression post injection: at least five hours
  time to reach the glucose nadir (Tnadir): about 3 hours

## insulin-glycogen: comparative insulin-oyster glycogen (Type II) conjugate per U.S. Patent Application Publication No. 20070099820
Blood glucose [7]; 2.5-5 U/kg
  glucose depression profile / glucose lowering response: lower glucose levels much more rapidly and to a greater extent
